Experimental data published in patent publication US8048825B2, “Haloalkylsulfonanilide derivatives or salt thereof, herbicide comprising the derivatives as active ingredient, and use of the herbicide” (Nihon Nohyaku Co., Ltd., priority 2006, dated 2011).

Legend:
Type in all cases: in vivo
Scirpus juncoides [1] = assay: Herbicidal effect on paddy field weeds of post-emergence stage (Post), Test Example 2; conditions: one-leaf stage, 1000 g/ha as active ingredient, examined after 21 days
Description: (§1) Criteria for herbicidal efficacy (growth inhibiting degree) and phytotoxicity. • 5 . . . 100% herbicidal effect, phytotoxicity. • 4 . . . 90%-99% herbicidal effect, phytotoxicity. • 3 . . . 70%-89% herbicidal effect, phytotoxicity. • 2 . . . 40%-69% herbicidal effect, phytotoxicity. • 1 . . . 1%-39% herbicidal effect, phytotoxicity. • 0 . . . 0% herbicidal effect, phytotoxicity.
(§2) 75 cm^2 plastic pots were filled with the soil (clay loam). Seeds of Scirpus juncoides and Echinochloa crus-galli, paddy weeds, were planted, and they were covered with 75 cm^3 of soil mixed with seeds of Lindernia procumbens and then filled with water depth of 5 cm and they were brought up in a greenhouse. When the test plants were at one-leaf stage, predetermined effective dosage (1000 g/ha as an active ingredient) of formulations comprising a compound of the present invention as an active ingredient was applied to the pot water. Then, they were brought up in a greenhouse and the herbicidal efficacy was examined after 21 days from the treatment by comparing with the result of an untreated group according to the criteria of Test Example 1. In the table, “-” means that the test was not performed.

Echinochloa crus-galli = assay: as above; conditions: one-leaf stage, 1000 g/ha as active ingredient, examined after 21 days
Description: as §1, §2

Scirpus juncoides [2] = assay: Herbicidal efficacy on paddy field weeds of pre-emergence stage (Pre), Test Example 1; conditions: 1000 g/ha as active ingredient, examined after 21 days
Procedure: (§3) 75 cm^2 plastic pots were filled with the soil (clay loam). Seeds of Scirpus juncoides, a paddy weed, were planted, and they were covered with 75 cm^3 of soil mixed with seeds of Lindernia procumbens and then filled with water depth of 5 cm. Next day, predetermined effective dosage (1000 g/ha as an active ingredient) of formulations comprising a compound of the present invention as an active ingredient which were prepared following Formulation Examples 1 to 4 was diluted with water and applied dropwise to the surface of the water. Then, they were brought up in a greenhouse and the herbicidal effect was examined after 21 days from the treatment by comparing with the result of an untreated group according to the following criteria. In the table, “-” means that the test was not performed.
as §1

Lindernia procumbens [3] = assay: as above; conditions: 1000 g/ha as active ingredient, examined after 21 days
Procedure: as §3, §1

Lindernia procumbens [4] = assay: Herbicidal effect on paddy field weeds of post-emergence stage (Post), Test Example 2; conditions: one-leaf stage, 1000 g/ha as active ingredient, examined after 21 days
Description: as §1, §2

Row | Compound | Scirpus juncoides post (herbicidal effect) (Scirpus juncoides [1]) | Echinochloa crus-galli post (herbicidal effect) (Echinochloa crus-galli) | Scirpus juncoides pre (herbicidal effect) (Scirpus juncoides [2]) | Lindernia procumbens pre (herbicidal effect) (Lindernia procumbens [3]) | Lindernia procumbens post (herbicidal effect) (Lindernia procumbens [4])
1 | O=S(=O)(Nc1ccccc1CN1CCCCOC1=S)C(F)(F)F [2-12] | 4 (90%-99% herbicidal effect, phytotoxicity) | 4 (90%-99% herbicidal effect, phytotoxicity) | 4 (90%-99% herbicidal effect, phytotoxicity) | 4 (90%-99% herbicidal effect, phytotoxicity) | –
2 | CC(C)COC(=O)N(c1ccccc1CN1CCCCOC1=S)S(=O)(=O)C(F)(F)F [2-17] | 4 (90%-99% herbicidal effect, phytotoxicity) | 4 (90%-99% herbicidal effect, phytotoxicity) | 4 (90%-99% herbicidal effect, phytotoxicity) | – | –
3 | CC1(C(F)(F)F)CCN(Cc2ccccc2NS(=O)(=O)C(F)(F)F)C(=O)O1 (stereo not drawn) [Compound 1-80] | 4 (90%-99% herbicidal effect, phytotoxicity) | 4 (90%-99% herbicidal effect, phytotoxicity) | 4 (90%-99% herbicidal effect, phytotoxicity) | 4 (90%-99% herbicidal effect, phytotoxicity) | –
4 | COCN(c1ccccc1CN1CCC(c2ccccc2)(C2CC2)OC1=O)S(=O)(=O)C(F)(F)F (stereo not drawn) [Compound 1-191] | – | 4 (90%-99% herbicidal effect, phytotoxicity) | – | 4 (90%-99% herbicidal effect, phytotoxicity) | –
5 | CCOC(=O)N(c1ccccc1CN1CCC(c2ccccc2)(c2ccccc2)OC1=O)S(=O)(=O)C(F)(F)F [Compound 1-219] | 4 (90%-99% herbicidal effect, phytotoxicity) | – | 4 (90%-99% herbicidal effect, phytotoxicity) | 4 (90%-99% herbicidal effect, phytotoxicity) | 4 (90%-99% herbicidal effect, phytotoxicity)
6 | O=C1OC(c2ccccc2)(C(F)(F)F)CCN1Cc1ccccc1NS(=O)(=O)C(F)(F)F (stereo not drawn) [Compound 1-228] | 4 (90%-99% herbicidal effect, phytotoxicity) | – | 5 (100% herbicidal effect, phytotoxicity) | 5 (100% herbicidal effect, phytotoxicity) | 5 (100% herbicidal effect, phytotoxicity)
7 | O=C1OC(c2ccccc2F)CCN1Cc1ccccc1NS(=O)(=O)C(F)(F)F (stereo not drawn) [Compound 1-250] | 5 (100% herbicidal effect, phytotoxicity) | – | 5 (100% herbicidal effect, phytotoxicity) | 5 (100% herbicidal effect, phytotoxicity) | 5 (100% herbicidal effect, phytotoxicity)
8 | CCOC(=O)N(c1ccccc1CN1CCC(c2ccccc2F)OC1=O)S(=O)(=O)C(F)(F)F (stereo not drawn) [Compound 1-252] | 4 (90%-99% herbicidal effect, phytotoxicity) | – | 4 (90%-99% herbicidal effect, phytotoxicity) | 5 (100% herbicidal effect, phytotoxicity) | 5 (100% herbicidal effect, phytotoxicity)
9 | CN(c1ccccc1CN1CC(C)(C)C(c2ccccc2)OC1=O)S(=O)(=O)C(F)(F)F (stereo not drawn) [Compound 1-268] | 4 (90%-99% herbicidal effect, phytotoxicity) | – | 4 (90%-99% herbicidal effect, phytotoxicity) | 5 (100% herbicidal effect, phytotoxicity) | 5 (100% herbicidal effect, phytotoxicity)
10 | O=C1OC(c2ccccc2C(F)(F)F)CCN1Cc1ccccc1NS(=O)(=O)C(F)(F)F (stereo not drawn) [Compound 1-294] | 4 (90%-99% herbicidal effect, phytotoxicity) | – | 4 (90%-99% herbicidal effect, phytotoxicity) | 5 (100% herbicidal effect, phytotoxicity) | 5 (100% herbicidal effect, phytotoxicity)
11 | O=C1OC(c2ccccc2Cl)CCN1Cc1ccccc1NS(=O)(=O)C(F)(F)F (stereo not drawn) [Compound 1-305] | 4 (90%-99% herbicidal effect, phytotoxicity) | – | 4 (90%-99% herbicidal effect, phytotoxicity) | 5 (100% herbicidal effect, phytotoxicity) | 5 (100% herbicidal effect, phytotoxicity)
12 | CCOC(=O)N(c1ccccc1CN1CCC(c2ccccc2Cl)OC1=O)S(=O)(=O)C(F)(F)F (stereo not drawn) [Compound 1-307] | 4 (90%-99% herbicidal effect, phytotoxicity) | – | 4 (90%-99% herbicidal effect, phytotoxicity) | 5 (100% herbicidal effect, phytotoxicity) | 5 (100% herbicidal effect, phytotoxicity)
13 | O=C1OC(C(F)(F)F)(C(F)(F)F)CCN1Cc1ccccc1NS(=O)(=O)C(F)(F)F [Compound 1-338] | 4 (90%-99% herbicidal effect, phytotoxicity) | – | 4 (90%-99% herbicidal effect, phytotoxicity) | 4 (90%-99% herbicidal effect, phytotoxicity) | 5 (100% herbicidal effect, phytotoxicity)
14 | COC(=O)N(c1ccccc1CN1CCC(c2c(F)cccc2F)OC1=O)S(=O)(=O)C(F)(F)F (stereo not drawn) [Compound 1-350] | 4 (90%-99% herbicidal effect, phytotoxicity) | – | 5 (100% herbicidal effect, phytotoxicity) | 5 (100% herbicidal effect, phytotoxicity) | 5 (100% herbicidal effect, phytotoxicity)
15 | CCOC(=O)N(c1ccccc1CN1CCC(c2c(F)cccc2F)OC1=O)S(=O)(=O)C(F)(F)F (stereo not drawn) [Compound 1-351] | 4 (90%-99% herbicidal effect, phytotoxicity) | – | 4 (90%-99% herbicidal effect, phytotoxicity) | 5 (100% herbicidal effect, phytotoxicity) | 5 (100% herbicidal effect, phytotoxicity)
16 | Cc1cccc(C)c1C1CCN(Cc2ccccc2NS(=O)(=O)C(F)(F)F)C(=O)O1 (stereo not drawn) [Compound 1-360] | 4 (90%-99% herbicidal effect, phytotoxicity) | – | 5 (100% herbicidal effect, phytotoxicity) | 5 (100% herbicidal effect, phytotoxicity) | 5 (100% herbicidal effect, phytotoxicity)
17 | CC(C)(C)COC(=O)N(c1ccccc1CN1CCC(C)(C2(C)CC2)OC1=O)S(=O)(=O)C(F)(F)F (stereo not drawn) [Compound 1-377] | 4 (90%-99% herbicidal effect, phytotoxicity) | – | 4 (90%-99% herbicidal effect, phytotoxicity) | 5 (100% herbicidal effect, phytotoxicity) | 5 (100% herbicidal effect, phytotoxicity)
18 | CC1(c2ccccc2C(F)(F)F)CCN(Cc2ccccc2NS(=O)(=O)C(F)(F)F)C(=O)O1 (stereo not drawn) [Compound 1-393] | 4 (90%-99% herbicidal effect, phytotoxicity) | – | 5 (100% herbicidal effect, phytotoxicity) | 5 (100% herbicidal effect, phytotoxicity) | 5 (100% herbicidal effect, phytotoxicity)
19 | Cc1ccccc1C1(C)CCN(Cc2ccccc2NS(=O)(=O)C(F)(F)F)C(=O)O1 (stereo not drawn) [Compound 1-404] | 4 (90%-99% herbicidal effect, phytotoxicity) | – | 4 (90%-99% herbicidal effect, phytotoxicity) | 5 (100% herbicidal effect, phytotoxicity) | 5 (100% herbicidal effect, phytotoxicity)
20 | CCOC(=O)N(c1ccccc1CN1CCC(CC)(CC(C)C)OC1=O)S(=O)(=O)C(F)(F)F (stereo not drawn) [Compound 1-419] | 4 (90%-99% herbicidal effect, phytotoxicity) | – | 5 (100% herbicidal effect, phytotoxicity) | 5 (100% herbicidal effect, phytotoxicity) | 5 (100% herbicidal effect, phytotoxicity)
21 | CCC1(CC(C)C)CCN(Cc2ccccc2N(C(=O)OCC(C)C)S(=O)(=O)C(F)(F)F)C(=O)O1 (stereo not drawn) [Compound 1-422] | 4 (90%-99% herbicidal effect, phytotoxicity) | – | 5 (100% herbicidal effect, phytotoxicity) | 5 (100% herbicidal effect, phytotoxicity) | 5 (100% herbicidal effect, phytotoxicity)
